According to ChEMBL document CHEMBL1201862, “PubChem BioAssay data set” (2004):
The source made the active and inactive calls.

Assays:
[1] = Luminescence Cell-Based Dose Response HTS to Identify Activators of Luciferase Translation or Activity in H4 […] Cells. [Related pubchem assays: 1829 (Project Summary), 1814 (Primary HTS)]; assay type: functional
H4 = assay: Luminescence Cell-Based Dose Response HTS to Identify Activators of 5'UTR Stem-Loop Driven Prion Protein mRNA Translation in H4 Neuroglioblastoma Cells. [Related pubchem assays: 1829 (Project Summary), 1814 (Primary HTS)]; assay type: functional; conditions: Homo sapiens
Cytochrome P450 2D6 = Cytochrome P450 2D6 (Homo sapiens, UniProt P10635);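 further: CYP2D6 member of a cytochrome P450 panel assay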
[2] = target: T1, Corticotropin-releasing factor receptor 2/Corticotropin-releasing factor-binding protein (Homo sapiens, UniProt P24387+Q13324); assay: activators of CRF receptor 2 with binding protein – uHTS hits, confirmation (AID 602473); assay type: functional; conditions: read-out: EC50_Mean
T1 sequence (Q13324 whole entry): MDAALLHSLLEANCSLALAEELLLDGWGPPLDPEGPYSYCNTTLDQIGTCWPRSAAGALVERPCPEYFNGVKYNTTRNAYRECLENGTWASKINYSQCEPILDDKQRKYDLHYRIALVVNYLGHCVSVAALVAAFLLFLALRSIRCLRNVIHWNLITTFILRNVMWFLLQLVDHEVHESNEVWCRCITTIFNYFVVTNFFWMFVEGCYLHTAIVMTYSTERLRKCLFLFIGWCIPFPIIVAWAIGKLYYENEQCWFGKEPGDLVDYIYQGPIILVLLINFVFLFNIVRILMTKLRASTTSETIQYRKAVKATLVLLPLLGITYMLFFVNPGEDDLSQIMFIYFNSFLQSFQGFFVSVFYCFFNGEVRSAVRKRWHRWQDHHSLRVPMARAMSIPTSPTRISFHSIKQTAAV
T1 sequence (P24387 whole entry): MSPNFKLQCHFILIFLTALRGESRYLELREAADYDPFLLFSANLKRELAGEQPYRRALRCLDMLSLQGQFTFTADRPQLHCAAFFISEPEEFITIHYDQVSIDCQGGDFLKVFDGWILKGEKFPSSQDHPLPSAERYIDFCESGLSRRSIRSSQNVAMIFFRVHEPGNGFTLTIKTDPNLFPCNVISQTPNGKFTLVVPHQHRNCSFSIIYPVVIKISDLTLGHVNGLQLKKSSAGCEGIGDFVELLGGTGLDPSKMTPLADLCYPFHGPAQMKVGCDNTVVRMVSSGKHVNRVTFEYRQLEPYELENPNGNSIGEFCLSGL

[3] = target: T1, Corticotropin-releasing factor receptor 2/Corticotropin-releasing factor-binding protein; assay: Dose Response confirmation of uHTS hits for small molecule antagonists of the CRF-binding protein and CRF-R2 receptor complex.; assay type: functional; conditions: read-out: IC50_Mean
[4] = target: T2, Polyadenylate-binding protein 1 (Homo sapiens, UniProt P11940); assay: MLLE domain peptide-binding blockers, IC50 – biochemical, fluorescence polarization, FITC-PAM2 peptide, dose response (AID 602259); assay type: functional; conditions: read-out: IC50_Mean
[5] = target: T2, Polyadenylate-binding protein 1; assay: MLLE binding blockers, Cy5 peptide tracer – biochemical, fluorescence polarization, Cy5-PAM2 peptide, secondary, miRNA deadenylation inhibitor project, dose response (AID 602260); assay type: functional; conditions: read-out: IC50_Mean
SN12K1 = assay: cells; assay type: functional; conditions: Homo sapiens
P388/ADR = assay: cells; assay type: functional; conditions: Mus musculus
P388 = assay: cells; assay type: functional; conditions: Mus musculus
[6] = HIV-1 AD8 envelope cell-cell fusion blockers – cherry-pick, dose response (AID 652062); assay type: functional, cell-based;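 further: luciferase signal from cell-cell fusion driven by HIV-1 clade B AD8 Env; potency is for inhibitors of fusion seen as a drop in luminescence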

T2 sequence (P11940 whole entry, the tested form may be a part): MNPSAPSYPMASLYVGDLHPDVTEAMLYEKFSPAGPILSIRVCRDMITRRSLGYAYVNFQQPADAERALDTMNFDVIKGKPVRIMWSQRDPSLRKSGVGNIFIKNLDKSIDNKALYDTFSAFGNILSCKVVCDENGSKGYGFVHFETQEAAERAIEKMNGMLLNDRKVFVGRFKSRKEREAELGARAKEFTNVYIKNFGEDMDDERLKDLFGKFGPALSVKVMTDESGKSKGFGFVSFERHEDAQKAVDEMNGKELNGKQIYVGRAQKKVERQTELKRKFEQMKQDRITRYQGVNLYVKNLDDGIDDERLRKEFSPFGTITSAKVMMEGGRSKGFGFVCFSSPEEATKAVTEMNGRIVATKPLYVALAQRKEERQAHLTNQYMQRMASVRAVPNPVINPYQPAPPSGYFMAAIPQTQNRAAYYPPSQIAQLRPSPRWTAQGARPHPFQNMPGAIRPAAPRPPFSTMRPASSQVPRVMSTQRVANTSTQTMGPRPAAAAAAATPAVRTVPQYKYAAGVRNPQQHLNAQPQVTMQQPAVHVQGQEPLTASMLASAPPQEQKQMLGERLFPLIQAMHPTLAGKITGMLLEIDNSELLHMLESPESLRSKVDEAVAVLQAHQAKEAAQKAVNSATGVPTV
Chain of Cytochrome P450 2D6 (P10635 whole entry): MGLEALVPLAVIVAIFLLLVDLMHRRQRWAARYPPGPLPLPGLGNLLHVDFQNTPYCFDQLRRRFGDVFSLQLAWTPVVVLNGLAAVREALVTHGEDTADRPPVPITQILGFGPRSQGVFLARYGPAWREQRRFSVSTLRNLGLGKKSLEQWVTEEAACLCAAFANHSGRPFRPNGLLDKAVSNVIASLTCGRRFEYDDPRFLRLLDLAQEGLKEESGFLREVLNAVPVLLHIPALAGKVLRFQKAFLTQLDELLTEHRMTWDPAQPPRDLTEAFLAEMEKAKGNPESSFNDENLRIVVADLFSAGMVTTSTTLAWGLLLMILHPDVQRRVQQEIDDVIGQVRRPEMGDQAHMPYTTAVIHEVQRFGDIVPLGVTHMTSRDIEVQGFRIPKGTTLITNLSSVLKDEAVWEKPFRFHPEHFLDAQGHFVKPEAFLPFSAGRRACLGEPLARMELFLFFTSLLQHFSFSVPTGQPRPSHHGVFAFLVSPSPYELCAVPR

With Cc1cccnc1N=C(S)NCCc1ccccc1 the EC50 [1] was 21.7 µM (active) and the EC50 (H4) was 12.9 µM (inconclusive).

With CC(C)NC[C@@H](O)COc1ccccc1-n1cccc1 the AC50 (Cytochrome P450 2D6) was 31.6 µM (inconclusive).

With CC(C)N(C(=O)[C@H]1C[C@H](CC(=O)NCc2ccco2)C(=O)N2CCc3c([nH]c4cc(CCC(=O)N(C)C)ccc34)[C@]12C)C(C)C the EC50 [2] was > 53 µM (inactive) and the IC50 [3] was > 47.1 µM (inactive).

In the case of COc1ccc(Cl)cc1C(=O)NNC(=O)COC(=O)c1cccs1, the EC50 [2] is reported as > 53 µM (inactive) and the IC50 [3] is reported as > 47.1 µM (inactive).

In the case of Cc1cc([N+](=O)[O-])c2ccccc2c1NS(=O)(=O)c1ccccc1, the EC50 [2] is reported as > 53 µM (inactive) and the IC50 [3] is reported as > 47.1 µM (inactive).

For O=C(NCCCCCCNC(=O)N1CCCCCC1)N1CCCCCC1, the EC50 [2] was > 53 µM (inactive) and the IC50 [3] was > 47.1 µM (inactive).

For CC(=O)Nc1ccc(SC[C@H](Cc2ccccc2)N2CC[C@@H](O)CCC2=O)cc1, the IC50 [4] was > 66 µM (inactive) and the IC50 [5] was > 66 µM (inactive).

With Oc1c(N=Nc2nn[nH]n2)ccc2ccccc12 the IC50 [4] was 38.9 µM (inactive) and the IC50 [5] was > 66 µM (inactive).

With COc1ccc(C2C(C)C(=O)C(C)C(c3ccc(OC)cc3)N2N=O)cc1 (stereo not drawn) the GI50 (SN12K1) was 55.2 µM (inactive) and the GI50 (P388/ADR) was > 100 µM (inactive).

In the case of O=C(CCCc1ccccc1)Nc1nncs1, the EC50 [2] is reported as > 53 µM (inactive) and the IC50 [3] is reported as > 47.1 µM (inactive).

With Cc1cccc2nc3c(C(=O)NCCN(C)C)cccc3cc12 the GI50 (SN12K1) was 0.711 µM (active), the GI50 (P388) was 0.292 µM (active) and the GI50 (P388/ADR) was 0.474 µM (active).

With CN(C)CCNC(=O)c1cccc2[nH]c(-c3ccc(Cl)cc3)nc12 the GI50 (SN12K1) was 3.48 µM (inactive), the GI50 (P388) was 2.48 µM (inactive) and the GI50 (P388/ADR) was 3.2 µM (inactive).

In the case of Nc1ncc(CN2CCCC2)c(-c2ccccc2O)n1, the GI50 (SN12K1) is reported as > 100 µM (inactive) and the GI50 (P388) is reported as > 100 µM (inactive).

For COc1cc(C2(c3ncc[nH]3)SSSCC2O)ccc1O (stereo not drawn), the GI50 (SN12K1) was 30.5 µM (inactive), the GI50 (P388) was 18.7 µM (inactive) and the GI50 (P388/ADR) was 17.8 µM (inactive).

With CO[C@H]1C[C@@H]2CC[C@@H](C)[C@@](O)(O2)C(=O)C(=O)N2CCCC[C@H]2C(=O)O[C@H]([C@H](C)C[C@@H]2CC[C@@H](O)[C@H](OC)C2)CC(=O)[C@H](C)C=C(C)[C@@H](O)[C@@H](OC)C(=O)[C@H](C)C[C@H](C)/C=C/C=C/C=C1C the GI50 (SN12K1) was 0.1 µM (active) and the GI50 (P388) was 0.1 µM (active).

For CC(NCCS(=O)(=O)O)C(=O)O (stereo not drawn), the GI50 (SN12K1) was > 100 µM (inactive), the GI50 (P388) was > 100 µM (inactive) and the GI50 (P388/ADR) was > 100 µM (inactive).

For COc1cccc2c1C(=O)c1c(O)c3c(c(O)c1C2=O)C[C@@](O)(C(C)O)C[C@@H]3OC1CC(N)C(O)C(C)O1 (stereo partly drawn), the GI50 (SN12K1) was 0.0891 µM (active), the GI50 (P388) was 0.191 µM (active) and the GI50 (P388/ADR) was 36.6 µM (inactive).

In the case of CC(C)C1NC(=O)CC(c2ccccc2)N(N=O)C1c1ccccc1 (stereo not drawn), the GI50 (SN12K1) is reported as > 89.9 µM (inactive), the GI50 (P388) is reported as 70.1 µM (inactive) and the GI50 (P388/ADR) is reported as 44.5 µM (inactive).

In the case of O=C1C2=C(C3=NCCc4c[nH]c1c43)c1c(Br)cc(Br)cc1CCN2, the GI50 (SN12K1) is reported as 3.65 µM (inactive), the GI50 (P388) is reported as 2.13 µM (inactive) and the GI50 (P388/ADR) is reported as 2.18 µM (inactive).

With CO/C=C1\OC(=O)C=C1OC the GI50 (SN12K1) was > 100 µM (inactive), the GI50 (P388) was > 100 µM (inactive) and the GI50 (P388/ADR) was > 100 µM (inactive).

With Cc1ccc(S(=O)(=O)N(C)C[C@@H]2Oc3ccc(NS(=O)(=O)c4ccc(Cl)cc4)cc3C(=O)N([C@@H](C)CO)C[C@H]2C)cc1 the AC50 [6] was 3.2 µM (active).

With Cc1c2cc[n+](C)c(C)c2cc2c1[nH]c1ccccc12 the GI50 (SN12K1) was 2.21 µM (inactive), the GI50 (P388) was 4.5 µM (inactive) and the GI50 (P388/ADR) was > 100 µM (inactive).

With O=C(O)CNS(=O)(=O)c1ccc(NC(=O)Nc2ccccc2)cc1 the GI50 (SN12K1) was > 100 µM (inactive), the GI50 (P388) was > 100 µM (inactive) and the GI50 (P388/ADR) was > 100 µM (inactive).

In the case of Cc1c2cc[n+](Cc3ccc(I)cc3)cc2c(C)c2c1[nH]c1ccccc12, the GI50 (SN12K1) is reported as 0.208 µM (active), the GI50 (P388) is reported as 0.1 µM (active) and the GI50 (P388/ADR) is reported as 17.9 µM (inactive).

For [H]/N=C(/N)N/C(=N/[H])NCCc1ccccc1 [PHENFORMIN], the AC50 (Cytochrome P450 2D6) was 10 µM (inconclusive).
